From US20250275976A1, “Methods of Treating Neuroinflammatory Conditions” (Athira Pharma, Inc., priority 2022, published 2025)
Square brackets hold non-standard residues; d marks the D form. Peptide text beside a SMILES is read from it. * marks the point of attachment. Hexanoyl = CCCCCC(=O)*; Ahx = NCCCCCC(=O)O

How the values were obtained:
[1] = system: THP-1-differentiated macrophages; experiment: Pro-inflammatory cytokines in supernatants of LPS-challenged THP-1-differentiated macrophages; assay type: cell-based, human; design: key to Significant reduction in pro-inflammatory cytokine expression: IL-6 / Significant reduction in pro-inflammatory cytokine expression: TNF-α / Significant reduction in pro-inflammatory cytokine expression: IL-1β: “NS” indicates a non-significant reduction in the indicated cytokine; “+” indicates a p value <0.05 in Tukey post test; “++” indicates a p value <0.01 in Tukey post test; conditions: for Expression of IL-1β and TNF-α (result in words) / Expression of IL-6 (result in words): at at least one tested dose; for Significant reduction in pro-inflammatory cytokine expression: IL-1β / Significant reduction in pro-inflammatory cytokine expression: IL-6 / Significant reduction in pro-inflammatory cytokine expression: TNF-α: LPS 24 hrs
Description: Neuroinflammation plays a crucial role in disease progression and is a complex phenomenon involving various cells that affect many extra- and intracellular signaling pathways and cytokine production. The macrophage of the brain (microglia) is the main agent of innate immunity in the CNS and performs various functions, including neuroprotection, in response to inflammatory signals. Activated microglia participate in developing neuroinflammation, responding to toxic exogenous substances (like LPS) or endogenous substances (like amyloid-beta). Here, THP-1 cells were used as an in-vitro cell model to evaluate mechanisms relevant to CNS inflammation. Differentiation with phorbol-12-myristate-13-acetate (PMA) causes THP-1 monocyte cells to acquire functional and morphological resemblance to macrophages. LPS interacts with THP-1 differentiated macrophage through the toll-like receptor 4, triggering the inflammatory response and stimulating pro-inflammatory cytokine release and eventually leading to cellular death. Test compounds were investigated for whether they have anti-inflammatory effects on LPS-challenged macrophage cultures. THP-1-differentiated macrophages were treated with test compounds for 20 minutes, followed by 24 hrs of LPS challenge. Culture supernatants were then collected to analyzed for the presence of pro-inflammatory cytokines: interleukin 1β (IL--1β), interleukin 6 (IL-6) and tumor necrosis factor α (TNF-α).
Cytokine quantification in cell culture supernatants was accomplished by homogeneous time resolved fluorescence (HTRF) kits to assess levels of IL-1β (Human IL-1β kit, #62HIL1BPEG, Cisbio) and IL-6 (Human IL-6 kit, 62HILO6PET, Cisbio), and by ELISA (Human TNF-α ELISA kit, KHC3011, ThermoFisher) to determine the levels of TNF-α.
Data analysis was performed via 1-way ANOVA with Tukey post-test compared to LPS treatment cultures using Prism statistical software (GraphPad). Tabular data indicates significance of reduction in culture supernatants for the indicated analyte at the indicated dose.

[2] = system: Rat primary cortical neuron cultures; experiment: Neuroprotection of rat cortical neurons against LPS challenge (Cell Titer-Glo); conditions: for Protection of primary neurons from LPS-stimulated inflammatory toxicity (in words): at at least one dose tested; for Significance of neuroprotection vs 1 uM LPS: LPS 24 h
Description: To assess the neuroprotective effect of compound treatment against inflammatory insult, primary cultured cortical neurons were subjected to lipopolysaccharide (LPS) treatment for 24h along with various compound doses of compounds of Formula (I) or Compound A19. […] Rat primary cortical neuron cultures were grown at 37° C., 5% C02 in Complete Neurobasal Medium supplemented with B27/GDNF/BDNF containing 10% FBS until maturity. 25 μl of culture volume were seeded in a 384-well plate at 5,000 cells/well, and treated with 1 μM, 100 nM, 10 nM, 1 nM, or 0.1 nM of test compound for 15 minutes. Cells were then subjected to 1 μM LPS challenge for 24 hours. Luminescence measurements to assess relative levels of ATP were performed on an Envision plate reader (Perkin Elmer). Data for DMSO control were set to 100% cell viability, and each group (n=4) were averaged and presented as mean±SEM.

Row | Structure (SMILES) | Expression of IL-1β and TNF-α (result in words) [1] | Expression of IL-6 (result in words) [1] | Significant reduction in pro-inflammatory cytokine expression: IL-1β ([1]; dose 0.1 nM) | Significant reduction in pro-inflammatory cytokine expression: IL-6 ([1]; dose 0.1 nM) | Significant reduction in pro-inflammatory cytokine expression: TNF-α ([1]; dose 0.1 nM) | Significant reduction in pro-inflammatory cytokine expression: IL-1β ([1]; dose 10 nM) | Significant reduction in pro-inflammatory cytokine expression: IL-6 ([1]; dose 10 nM) | Significant reduction in pro-inflammatory cytokine expression: TNF-α ([1]; dose 10 nM) | Significant reduction in pro-inflammatory cytokine expression: IL-1β ([1]; dose 1000 nM) | Significant reduction in pro-inflammatory cytokine expression: IL-6 ([1]; dose 1000 nM) | Significant reduction in pro-inflammatory cytokine expression: TNF-α ([1]; dose 1000 nM) | Protection of primary neurons from LPS-stimulated inflammatory toxicity (in words) [2] | Significance of neuroprotection vs 1 uM LPS ([2]; dose 0.1 nM) | Significance of neuroprotection vs 1 uM LPS ([2]; dose 1 nM) | Significance of neuroprotection vs 1 uM LPS ([2]; dose 10 nM) | Significance of neuroprotection vs 1 uM LPS ([2]; dose 100 nM) | Significance of neuroprotection vs 1 uM LPS ([2]; dose 1 μM)
1 | CCC(C)CN1CC2N(Cc3ccc(C(F)(F)F)cc3)CCC(=O)N2[C@@H](C)C1=O (some centres unmarked) [Compound 5a] | significantly reduced | significantly reduced | ++ (“++” indicates a p value <0.01 in Tukey post test) | NS | NS | ++ (“++” indicates a p value <0.01 in Tukey post test) | + (“+” indicates a p value <0.05 in Tukey post test) | NS | ++ (“++” indicates a p value <0.01 in Tukey post test) | ++ (“++” indicates a p value <0.01 in Tukey post test) | + (“+” indicates a p value <0.05 in Tukey post test) | protected primary neurons from LPS-stimulated inflammatory toxicity | – | – | – | – | –
2 | CCC(C)CN1CC2N(C(=O)c3ccc(C(F)(F)F)cc3)CCC(=O)N2[C@@H](C)C1=O (some centres unmarked) [Compound 1a] | significantly reduced | significantly reduced | ++ (“++” indicates a p value <0.01 in Tukey post test) | NS | ++ (“++” indicates a p value <0.01 in Tukey post test) | ++ (“++” indicates a p value <0.01 in Tukey post test) | ++ (“++” indicates a p value <0.01 in Tukey post test) | ++ (“++” indicates a p value <0.01 in Tukey post test) | ++ (“++” indicates a p value <0.01 in Tukey post test) | + (“+” indicates a p value <0.05 in Tukey post test) | ++ (“++” indicates a p value <0.01 in Tukey post test) | protected primary neurons from LPS-stimulated inflammatory toxicity | – | – | – | – | –
3 | CCCCCC(=O)N[C@@H](Cc1ccc(O)cc1)C(=O)N[C@H](C(=O)NCCCCCC(N)=O)[C@@H](C)CC [Compound A19 active metabolite, dihexa] (Hexanoyl-Tyr-Ile-[Ahx]-NH2) | significantly reduced | significantly reduced | NS | NS | NS | ++ (“++” indicates a p value <0.01 in Tukey post test) | + (“+” indicates a p value <0.05 in Tukey post test) | + (“+” indicates a p value <0.05 in Tukey post test) | + (“+” indicates a p value <0.05 in Tukey post test) | ++ (“++” indicates a p value <0.01 in Tukey post test) | ++ (“++” indicates a p value <0.01 in Tukey post test) | protected primary neurons from LPS-stimulated inflammatory toxicity | +++ (+++ indicates p<0.001) | ++ (++ indicates p<0.01) | +++ (+++ indicates p<0.001) | ++ (++ indicates p<0.01) | ++ (++ indicates p<0.01)
